Laboratory results published in US20090275546A1, “Diagnostic tests and personalized treatment regimes for cancer stem cells” (Istituto Superiore di Sanita, priority 2008, published 2009).
“Also recorded” adds a separate entry of the source. Read-outs that look alike come from different tables or passages of the source.

How the values were obtained:
[1] = system: CTSC#85 (TRAIL-resistant colon CSC line); test: drug combination experiment; assay type: cell-based, human; settings: 24 h, TRAIL IC50/17-AAG IC50
Description: Normalized viability at 24 h is plotted against drug combinations. […] Recombinant human Killer TRAIL was purchased from Alexis (San Diego, Calif., USA) while Geldanamycin, 17-AAG and 17-DMAG were purchased from Calbiochem (Nottingham, UK). All agents were diluted into fresh medium at the specified concentrations. Measure of cell viability was performed using CelltiterGlo® luminescent assay (Promega Corporation, Madison, Wis., USA) and luminescence was recorded on Beckman Coulter DTX880 multimode reader (Beckman Coulter Inc., Fullerton, Calif., USA) with an integration time of 100 ms.

colon cancer cell lines = settings: commercial (non-stem) cell lines, colon and lung; cited from earlier work
rat brain CaM kinase II = settings: cited from earlier work
colon CSCs [2] = test: kinase inhibitor library screening, ATP-based viability assay; assay type: cell-based, human
Description: A flowchart showing the steps of the screenings performed on colon CSCs, is depicted in FIG. 5. Before treatment with inhibitors, colon CSCs undergo trypsin/EDTA dissociation in order to be consistently plated into 96-well microtiter plates. After 48 h cells recover from dissociation and form spheroids again. Inhibitors are subsequently added to the cells as single agents while ATP-based-viability assay are performed after another 48 h.
Viability controls are cells treated with DMSO whereas staurosporin-treated cells are positive controls of death.
(§1) Cells were incubated at 37° C. for a variable time, depending on the size and on the sensitivity of each colon CSC line, until single cell suspension was achieved. Cells were then washed once in fresh medium and plated into 96-well microtiter plates in 80 μL volume. The number of cells plated ranged from 2000 to 5000 per well. Drugs were added after 48 h by dispensing each well with 20 μL of medium containing 5× concentrated compounds. We purchased the kinase inhibitor library from Enzo Life Sciences International, Inc (formerly BIOMOL International, L.P., PA, USA) and used each single inhibitor at a final […] concentration. As a control DMSO was added to cells at a final concentration of 0.1% (v/v).
Measure of cell viability was performed using CelltiterGlo® luminescent assay (Promega Corporation, Madison, Wis., USA) and luminescence was recorded on Beckman Coulter DTX880 multimode reader (Beckman Coulter Inc., Fullerton, Calif., USA) with an integration time of 100 ms.
Statistical analysis and IC50 calculations were performed with the aid of Microsoft Excel (Microsoft Corporation, www.microsoft.com) and GraphPad Prism version 4.00 for Windows, (GraphPad Software, San Diego, Calif., www.graphpad.com) while hierarchical clustering was performed with TMev v4.3.01 [10]. Normalized viability represents the signal intensity of each replicate divided by the average of single plate DMSO controls (in percent). Dunnett's post-test was performed on at least three independent experiments for each colon CSC line to calculate statistical significance versus DMSO controls. P values were subsequently clustered by using Euclidean distance as metric and complete linkage as a linkage method.

c-Raf = c-Raf (Homo sapiens, UniProt P04049); settings: selectivity c-Raf over B-Raf; cited from earlier work
Sequence of c-Raf (P04049 whole entry): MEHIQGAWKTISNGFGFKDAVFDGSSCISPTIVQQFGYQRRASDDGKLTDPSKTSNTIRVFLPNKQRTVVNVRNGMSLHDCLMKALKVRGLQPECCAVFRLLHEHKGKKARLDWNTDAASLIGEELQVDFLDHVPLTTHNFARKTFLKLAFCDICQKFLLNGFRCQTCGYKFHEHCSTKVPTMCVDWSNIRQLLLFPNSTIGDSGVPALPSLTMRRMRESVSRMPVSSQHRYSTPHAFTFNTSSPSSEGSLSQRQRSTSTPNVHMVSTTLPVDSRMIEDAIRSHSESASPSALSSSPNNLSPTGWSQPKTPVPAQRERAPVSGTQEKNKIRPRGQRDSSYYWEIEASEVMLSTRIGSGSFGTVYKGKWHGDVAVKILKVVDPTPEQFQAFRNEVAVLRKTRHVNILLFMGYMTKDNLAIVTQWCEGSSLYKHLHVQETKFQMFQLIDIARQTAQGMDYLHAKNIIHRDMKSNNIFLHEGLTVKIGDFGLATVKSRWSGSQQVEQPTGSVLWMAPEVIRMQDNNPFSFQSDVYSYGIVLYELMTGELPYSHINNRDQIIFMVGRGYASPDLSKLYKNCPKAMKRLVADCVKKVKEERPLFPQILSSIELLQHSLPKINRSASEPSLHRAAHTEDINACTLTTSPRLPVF

[3] = system: many other protein kinases; settings: even at 50 μM; cited from earlier work
SAPK2a/p38a = SAPK2a/p38a (Homo sapiens, UniProt Q16539); settings: cited from earlier work
SAPK2b/p38b2 = SAPK2b/p38b2 (Homo sapiens, UniProt Q15759); settings: cited from earlier work
Sequence of SAPK2b/p38b2 (Q15759 whole entry, the tested form may be a part): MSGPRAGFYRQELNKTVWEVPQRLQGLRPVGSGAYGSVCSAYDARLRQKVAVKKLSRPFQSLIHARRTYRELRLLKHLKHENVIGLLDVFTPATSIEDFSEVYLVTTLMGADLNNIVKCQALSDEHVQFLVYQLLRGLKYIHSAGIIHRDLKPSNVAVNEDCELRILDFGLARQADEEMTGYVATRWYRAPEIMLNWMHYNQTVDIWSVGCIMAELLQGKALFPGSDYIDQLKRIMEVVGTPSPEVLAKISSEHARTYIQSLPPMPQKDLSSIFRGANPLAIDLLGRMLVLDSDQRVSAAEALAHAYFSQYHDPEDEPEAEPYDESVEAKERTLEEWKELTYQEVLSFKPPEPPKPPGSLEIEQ

[4] = molecular target: casein kinase I and PKA, insulin receptor kinase fragment; settings: range over casein kinase I; cited from earlier work
Cdk5 = Cdk5 (Homo sapiens, UniProt Q00535); settings: cited from earlier work
[5] = system: TNF-a-inducible phosphorylation of IkBa; settings: cited from earlier work
PKCd = PKCd (Homo sapiens, UniProt Q05655); settings: cited from earlier work
Sequence of PKCd (Q05655 whole entry, species assumed): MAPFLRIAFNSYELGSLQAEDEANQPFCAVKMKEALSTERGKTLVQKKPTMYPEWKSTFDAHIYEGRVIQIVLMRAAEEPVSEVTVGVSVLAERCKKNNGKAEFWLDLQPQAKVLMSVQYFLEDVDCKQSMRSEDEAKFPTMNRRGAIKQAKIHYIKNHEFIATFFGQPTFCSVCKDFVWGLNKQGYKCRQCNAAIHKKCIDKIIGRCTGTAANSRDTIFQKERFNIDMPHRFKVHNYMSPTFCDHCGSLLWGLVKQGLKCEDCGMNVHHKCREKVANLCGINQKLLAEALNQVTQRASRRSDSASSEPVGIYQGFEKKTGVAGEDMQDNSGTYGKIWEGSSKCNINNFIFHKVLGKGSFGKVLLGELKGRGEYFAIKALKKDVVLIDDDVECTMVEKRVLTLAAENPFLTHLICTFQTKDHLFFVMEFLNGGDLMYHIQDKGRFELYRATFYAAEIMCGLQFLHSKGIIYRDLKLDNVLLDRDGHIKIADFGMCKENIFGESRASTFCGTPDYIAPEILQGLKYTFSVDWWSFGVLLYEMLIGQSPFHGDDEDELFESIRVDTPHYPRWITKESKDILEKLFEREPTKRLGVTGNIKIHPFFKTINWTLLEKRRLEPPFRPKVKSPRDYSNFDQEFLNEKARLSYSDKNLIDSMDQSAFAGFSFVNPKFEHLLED

human PDGF a-receptors = human PDGF a-receptors (Homo sapiens, UniProt P16234); settings: cited from earlier work
Sequence of human PDGF a-receptors (P16234 24-1089): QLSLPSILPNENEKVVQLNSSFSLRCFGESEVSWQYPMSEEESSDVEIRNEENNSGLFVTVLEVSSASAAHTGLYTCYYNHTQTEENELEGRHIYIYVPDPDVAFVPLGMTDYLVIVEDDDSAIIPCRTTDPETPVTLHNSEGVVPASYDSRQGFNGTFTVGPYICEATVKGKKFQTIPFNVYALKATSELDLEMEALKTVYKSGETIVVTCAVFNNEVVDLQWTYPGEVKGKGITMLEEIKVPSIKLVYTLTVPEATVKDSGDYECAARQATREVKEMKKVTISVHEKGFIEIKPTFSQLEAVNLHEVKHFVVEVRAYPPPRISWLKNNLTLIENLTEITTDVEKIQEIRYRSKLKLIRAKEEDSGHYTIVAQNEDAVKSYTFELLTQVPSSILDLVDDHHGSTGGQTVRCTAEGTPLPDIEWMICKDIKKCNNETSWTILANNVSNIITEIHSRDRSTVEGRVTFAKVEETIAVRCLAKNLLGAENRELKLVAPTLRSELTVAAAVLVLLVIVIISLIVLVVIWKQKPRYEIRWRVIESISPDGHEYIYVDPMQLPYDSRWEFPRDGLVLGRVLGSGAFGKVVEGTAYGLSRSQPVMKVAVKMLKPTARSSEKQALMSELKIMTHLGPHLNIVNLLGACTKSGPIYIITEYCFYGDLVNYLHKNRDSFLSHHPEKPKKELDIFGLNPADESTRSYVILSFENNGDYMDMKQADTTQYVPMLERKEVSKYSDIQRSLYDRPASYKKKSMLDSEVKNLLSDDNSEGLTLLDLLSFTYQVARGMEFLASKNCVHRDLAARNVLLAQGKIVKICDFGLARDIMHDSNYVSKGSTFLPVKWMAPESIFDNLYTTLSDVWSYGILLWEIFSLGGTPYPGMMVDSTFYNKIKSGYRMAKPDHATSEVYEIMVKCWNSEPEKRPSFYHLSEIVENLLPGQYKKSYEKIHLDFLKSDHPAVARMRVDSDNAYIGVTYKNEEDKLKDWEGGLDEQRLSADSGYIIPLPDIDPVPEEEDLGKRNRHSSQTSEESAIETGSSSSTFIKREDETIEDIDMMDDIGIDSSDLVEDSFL

human PDGF b-receptors = human PDGF b-receptors (Homo sapiens, UniProt P09619); settings: cited from earlier work
Sequence of human PDGF b-receptors (P09619 33-1106): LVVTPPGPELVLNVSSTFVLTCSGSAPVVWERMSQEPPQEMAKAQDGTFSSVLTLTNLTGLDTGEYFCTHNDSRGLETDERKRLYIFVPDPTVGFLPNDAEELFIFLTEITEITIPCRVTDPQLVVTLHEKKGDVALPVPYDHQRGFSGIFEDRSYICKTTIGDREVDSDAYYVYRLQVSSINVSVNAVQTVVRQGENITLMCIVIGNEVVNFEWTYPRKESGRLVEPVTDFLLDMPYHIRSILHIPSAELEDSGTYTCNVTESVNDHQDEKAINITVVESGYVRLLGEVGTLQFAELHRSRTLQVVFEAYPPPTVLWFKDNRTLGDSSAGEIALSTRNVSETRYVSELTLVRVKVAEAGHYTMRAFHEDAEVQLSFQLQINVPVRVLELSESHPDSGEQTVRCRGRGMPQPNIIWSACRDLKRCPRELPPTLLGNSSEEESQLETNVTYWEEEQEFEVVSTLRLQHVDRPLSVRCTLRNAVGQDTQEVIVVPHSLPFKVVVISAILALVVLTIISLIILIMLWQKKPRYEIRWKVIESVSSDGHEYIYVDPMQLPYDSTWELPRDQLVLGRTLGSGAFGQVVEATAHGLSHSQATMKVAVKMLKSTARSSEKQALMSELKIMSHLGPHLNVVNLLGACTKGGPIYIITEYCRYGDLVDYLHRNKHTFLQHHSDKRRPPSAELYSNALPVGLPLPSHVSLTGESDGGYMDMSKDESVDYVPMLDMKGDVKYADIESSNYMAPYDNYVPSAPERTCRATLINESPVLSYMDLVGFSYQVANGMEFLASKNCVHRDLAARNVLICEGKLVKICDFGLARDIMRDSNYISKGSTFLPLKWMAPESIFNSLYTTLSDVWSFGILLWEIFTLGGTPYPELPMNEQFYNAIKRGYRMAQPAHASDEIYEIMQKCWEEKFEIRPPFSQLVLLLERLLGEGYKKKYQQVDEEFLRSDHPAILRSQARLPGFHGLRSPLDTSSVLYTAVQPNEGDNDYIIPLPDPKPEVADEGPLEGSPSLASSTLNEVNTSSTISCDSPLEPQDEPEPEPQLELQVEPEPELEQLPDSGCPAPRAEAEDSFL

c-kit = c-kit (Homo sapiens, UniProt P10721); settings: at 5 μM; cited from earlier work
Sequence of c-kit (P10721 26-976): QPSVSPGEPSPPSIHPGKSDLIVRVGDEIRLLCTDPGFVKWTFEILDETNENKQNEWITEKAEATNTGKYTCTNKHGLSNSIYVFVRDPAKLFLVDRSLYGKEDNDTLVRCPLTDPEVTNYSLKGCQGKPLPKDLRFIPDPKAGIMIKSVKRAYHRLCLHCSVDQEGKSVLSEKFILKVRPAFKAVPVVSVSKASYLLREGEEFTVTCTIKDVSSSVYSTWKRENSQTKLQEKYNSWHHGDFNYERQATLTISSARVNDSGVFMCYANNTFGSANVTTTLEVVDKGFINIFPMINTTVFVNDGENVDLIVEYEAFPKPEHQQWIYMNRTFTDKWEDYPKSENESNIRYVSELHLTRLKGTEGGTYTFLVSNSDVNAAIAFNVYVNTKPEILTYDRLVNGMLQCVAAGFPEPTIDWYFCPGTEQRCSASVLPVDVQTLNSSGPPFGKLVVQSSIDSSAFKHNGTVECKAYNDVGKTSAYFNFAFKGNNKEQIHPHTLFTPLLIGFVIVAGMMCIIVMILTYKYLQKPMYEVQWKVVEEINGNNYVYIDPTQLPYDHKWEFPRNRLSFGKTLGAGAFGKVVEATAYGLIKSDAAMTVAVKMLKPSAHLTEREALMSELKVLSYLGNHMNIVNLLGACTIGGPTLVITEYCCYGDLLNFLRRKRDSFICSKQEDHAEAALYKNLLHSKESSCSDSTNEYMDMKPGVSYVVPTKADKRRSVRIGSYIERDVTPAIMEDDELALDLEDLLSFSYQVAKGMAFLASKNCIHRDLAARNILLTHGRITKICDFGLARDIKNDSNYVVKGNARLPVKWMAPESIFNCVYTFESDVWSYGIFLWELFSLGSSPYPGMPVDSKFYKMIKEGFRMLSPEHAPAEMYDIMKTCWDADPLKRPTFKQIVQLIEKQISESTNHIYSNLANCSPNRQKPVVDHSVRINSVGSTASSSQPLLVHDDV

CaM kinase II = settings: cited from earlier work
protein kinase A = protein kinase A (Homo sapiens, UniProt P17612); settings: cited from earlier work
protein kinase C (PKC) = settings: cited from earlier work
[6] = system: GSK-3 in primary adipocytes; settings: cited from earlier work
[7] = molecular target: T1, GSK-3b immunoprecipitates (Homo sapiens, UniProt P49841); settings: cited from earlier work
T1 construct: host or cells: immunoprecipitates

CTSC#85 = test: dose-response analysis, viability (CelltiterGlo); assay type: cell-based, human; settings: escalating doses
[8] = molecular target: platelet-derived growth factor receptor tyrosine kinase (Homo sapiens, UniProt P09619); settings: cited from earlier work
Sequence of platelet-derived growth factor receptor tyrosine kinase (P09619 33-1106): as the sequence (P09619 33-1106) above

protein kinase G = settings: cited from earlier work
[9] = molecular target: myosin light chain kinase; settings: cited from earlier work
[10] = system: PKCa, PKCb, and PKCg isoforms; settings: cited from earlier work
CaM kinase III = CaM kinase III (Homo sapiens, UniProt O00418); settings: cited from earlier work
PKCe, PKCh, and PKCz = settings: reduced inhibitory activity; cited from earlier work
colon CSCs [11] = test: dose-response analysis on four colon CSCs; assay type: cell-based, human; settings: single agent, escalating doses, four colon CSC lines
Description: as §1, with “(v/v). Recombinant human Killer TRAIL was purchased from Alexis (San Diego, Calif., USA) while Geldanamycin, 17-AAG and 17-DMAG were purchased from Calbiochem (Nottingham, UK). All agents were diluted into fresh medium at the specified concentrations. Measure of cell viability was performed using CelltiterGlo® luminescent assay (Promega Corporation, Madison, Wis., USA) and luminescence was recorded on Beckman Coulter DTX880 multimode reader (Beckman Coulter Inc., Fullerton, Calif., USA) with an integration time of 100 ms.” for “(v/v).”

[12] = single agent, 5 μM, viability after 48 h, four colon CSC lines

In the case of `C=CCNC1=C2C[C@@H](C)C[C@H](OC)[C@H](O)[C@@H](C)/C=C(\C)[C@H](OC(N)=O)[C@@H](OC)/C=C\C=C(/C)C(=O)NC(=CC1=O)C2=O` [17-AAG, 17-Allylamino-17-demethoxygeldanamycin], the “effect of combination with TRAIL on normalized viability” value [1] is given as “synergistic effect; also recorded: rapidly (24 h) sensitized to TRAIL treatment” and the “sensitization of tumor cell lines to TRAIL” value (colon cancer cell lines) is given as “sensitizes colon cancer cell lines; also recorded: TRAIL resistance can be overcome”.

For `CN([C@@H](Cc1ccc(OS(=O)(=O)c2cccc3cnccc23)cc1)C(=O)N1CCN(c2ccccc2)CC1)S(=O)(=O)c1cccc2cnccc12` [KN-62], the Ki (rat brain CaM kinase II) is given as 900 nM.

For `Cc1ccc(NC(=O)c2cccc(N(C)C)c2)cc1NC(=O)c1ccc(O)cc1` [ZM 336372], the “effect on colon CSC proliferation / number versus DMSO controls” value (colon CSCs [2]) is given as “lead to significant proliferation”, the “increased potency on c-Raf compared to B-Raf” value (c-Raf) is given as “ten-fold” and the “inhibition of many other protein kinases” value [3] is given as “potency compared to B-Raf, but does not inhibit many other”. The IC50 (SAPK2a/p38a) was 2000 nM and the IC50 (SAPK2b/p38b2) was 2000 nM.

For `Nc1ncnc2c1c(I)cn2[C@@H]1O[C@H](CO)[C@@H](O)[C@H]1O` [5-Iodotubercidin], the “effect on colon CSC proliferation / number versus DMSO controls” value (colon CSCs [2]; [12]) is listed as “significantly lead to a reduction in colon CSC numbers” and the IC50 [4] is listed as 400 to 28000 nM.

For Indirubin-3′-monoxime, the IC50 (Cdk5) is listed as 100 nM.

For `Cc1ccc(S(=O)(=O)/C=C/C#N)cc1` [BAY 11-7082], the IC50 [5] is listed as 10000 nM.

For `CC(=O)c1c(O)c(C)c(O)c(Cc2c(O)c3c(c(C(=O)/C=C/c4ccccc4)c2O)OC(C)(C)C=C3)c1O` [Rottlerin], the “effect on colon CSC proliferation / number versus DMSO controls” value (colon CSCs [2]; [12]) is given as “significantly lead to a reduction in colon CSC numbers” and the IC50 (PKCd) is given as 3000 to 6000 nM.

In the case of `COc1cc2ncc(-c3ccccc3)nc2cc1OC` [AG 1296], the IC50 (human PDGF a-receptors) is listed as 1000 nM, the IC50 (human PDGF b-receptors) is listed as 800 nM and the inhibition (c-kit) is listed as “c-kit (80% inhibition at 5 μM)”.

In the case of `COc1ccc(S(=O)(=O)N(CCO)c2ccccc2CN(C)C/C=C/c2ccc(Cl)cc2)cc1` [KN-93], the Ki (CaM kinase II) is given as 370 nM.

For `Cn1cc(C2=C(c3cn(CCCSC(=N)N)c4ccccc34)C(=O)NC2=O)c2ccccc21` [Ro-31-8220], the “effect on colon CSC proliferation / number versus DMSO controls” value (colon CSCs [2]; [12]) is given as “significantly lead to a reduction in colon CSC numbers”, the IC50 (protein kinase A) is given as 900 nM and the IC50 (CaM kinase II) is given as 17000 nM. For the same molecule, the IC50 (protein kinase C (PKC)) was 10 nM, the IC50 [6] was 6.8 nM and the IC50 [7] was 2.8 nM.

With `CO[C@H]1/C=C\C=C(/C)C(=O)NC2=CC(=O)C(NCCN(C)C)=C(C[C@@H](C)C[C@H](OC)[C@H](O)[C@@H](C)/C=C(\C)[C@@H]1OC(N)=O)C2=O` [17-DMAG, 17-dimethylaminoethylamino-17-demethoxy-geldanamycin] the “sensitivity of the TRAIL-resistant colon CSC line to single agent” value (CTSC#85) was “sensitive”.

For `CC(C)(C)c1cc(C=C(C#N)C#N)cc(C(C)(C)C)c1O` [AG 17], the “effect on colon CSC proliferation / number versus DMSO controls” value (colon CSCs [2]; [12]) is listed as “significantly lead to a reduction in colon CSC numbers” and the IC50 [8] is listed as 500 nM.

In the case of `O=S(=O)(c1cccc2cnccc12)N1CCCNCC1` [HA-1077], the “effect on colon CSC proliferation / number versus DMSO controls” value (colon CSCs [2]; [12]) is listed as “lead to significant proliferation”, the Ki (protein kinase G) is listed as 1600 nM and the Ki [9] is listed as 36000 nM.

In the case of `Oc1ccc(-c2nc(-c3ccncc3)c(-c3ccc(F)cc3)[nH]2)cc1` [SB 202190], the “effect on colon CSC proliferation / number versus DMSO controls” value (colon CSCs [2]; [12]) is listed as “lead to significant proliferation”, the IC50 [10] is listed as 30000 to 42000 nM and the IC50 (CaM kinase III) is listed as 5300 nM. The IC50 (PKCe, PKCh, and PKCz) was 80000 to 100000 nM.

B1: TRAIL: Tumor necrosis factor-related apoptosis-inducing ligand; recombinant human Killer TRAIL from Alexis (protein, UniProt P50591 1-281, looked up)
Tumor necrosis factor ligand …: MAMMEVQGGPSLGQTCVLIVIFTVLLQSLCVAVTYVYFTNELKQMQDKYSKSGIACFLKEDDSYWDPNDEESMNSPCWQVKWQLRQLVRKMILRTSEETISTVQEKQQNISPLVRERGPQRVAAHITGTRGRSNTLSSPNSKNEKALGRKINSWESSRSGHSFLSNLHLRNGELVIHEKGFYYIYSQTYFRFQEEIKENTKNDKQMVQYIYKYTSYPDPILLMKSARNSCWSKDAEYGLYSIYQGGIFELKENDRIFVSVTNEHLIDMDHEASFFGAFLVG
For B1, the “resistance of colon CSCs to treatment alone” value (colon CSCs [11]) was “One out of four colon CSCs is resistant”.
